This note sets out measurements from patent US20110086834A1, “ALKYNYL ALCOHOLS AS KINASE INHIBITORS” (AMGEN INC., priority 2008, published 2011).

For orientation: Ki means a dissociation constant, usually derived from enzyme kinetics or from competition with a known ligand.

In this assay the target is T1, NIK (Homo sapiens, UniProt Q99558).
T1 construct: Both assays utilize a truncated form of NIK containing only the catalytic domain; made in house; host or cells: baculovirus expression system (insect cells implied)
T1 sequence (Q99558 400-655 limits assumed): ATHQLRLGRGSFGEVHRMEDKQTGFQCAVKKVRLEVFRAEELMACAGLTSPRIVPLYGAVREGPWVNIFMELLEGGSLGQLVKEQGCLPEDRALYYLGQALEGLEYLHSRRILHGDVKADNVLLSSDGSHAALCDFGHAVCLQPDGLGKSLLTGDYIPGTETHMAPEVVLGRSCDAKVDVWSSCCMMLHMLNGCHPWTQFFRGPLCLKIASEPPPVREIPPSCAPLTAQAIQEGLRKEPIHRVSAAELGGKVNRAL
The experiment in a line: homogenous time resolved fluorescence (HTRF) assay for NIK Ki measurement. The settings on record: truncated NIK (catalytic domain only), autophosphorylation; 10 nM enzyme; 20, 100, 200 or 500 μM ATP; room temperature, 2 hours; read-out: Ki activity in the homogenous time resolved fluorescence (HTRF) assay for NIK. The class given is biochemical.
As to `OC1(C#Cc2ccc3[nH]c4c(c3c2)-c2ncncc2CCC4)CCCC1` [Example 241, 1-(5,6,7,8-Tetrahydropyrimido[4′,′:3,4]cyclohepta[1,2-b]indol-11-ylethynyl)cyclopentanol], the Ki was < 1 µM.

Turning to `Cn1cnc([C@H](O)C#Cc2ccc3c(c2)N(c2nc(N)ncc2Cl)CC3(C)C)c1` (single isomer, unassigned) [Example 47, (1R*)-3-(1-(2-amino-5-chloro-4-pyrimidinyl)-3,3-dimethyl-2,3-dihydro-1H-indol-6-yl)-1-(1-methyl-1H-imidazol-4-yl)-2-propyn-1-ol], the Ki was < 1 µM.

In the case of `C[C@@](O)(C#Cc1ccc2c(c1)N(c1nc(N)ncc1Cl)C[C@@]21CCOC1)c1nccs1` (relative stereo) [Example 200, (2R)-4-((3R*)-1′-(2-Amino-5-chloro-4-pyrimidinyl)-1′,2′,4,5-tetrahydrospiro[furan-3,3′-indol]-6′-yl)-2-(1,3-thiazol-2-yl)-3-butyn-2-ol], the Ki is < 1 µM.

`CC(O)(C#Cc1ccc2c(c1)N(c1nc(N)ncc1Cl)CC2)c1ccccn1` (stereo not shown) [Example 308, 4-(1-(2-Amino-5-chloro-4-pyrimidinyl)-2,3-dihydro-1H-indol-6-yl)-2-(2-pyridinyl)-3-butyn-2-ol]: the Ki is < 1 µM.

Turning to `Nc1nccc(C2=CC3(CCOCC3)c3ccc(C#CC4(O)CCCC4)cc32)n1` [Example 220, 1-((3-(2-Amino-4-pyrimidinyl)-2′,3′,5′,6′-tetrahydrospiro[indene-1,4′-pyran]-5-yl)ethynyl)cyclopentanol], the Ki is < 1 µM.

As for `CN1CC2(C1)CN(c1nc(N)ncc1Cl)c1cc(C#CC(C)(O)c3nccs3)ccc12` (racemic) [Example 181, (rac)-4-(1′-(2-amino-5-chloropyrimidin-4-yl)-1-methylspiro[azetidine-3,3′-indoline]-6′-yl)-2-(thiazol-2-yl)but-3-yn-2-ol], the Ki was < 1 µM.

Take `COc1ccc(C#CC2(O)CCCC2)cc1Nc1ccnc(N)n1` [Example 270, 1-((3-((2-amino-4-pyrimidinyl)amino)-4-(methyloxy)phenyl)ethynyl)cyclopentanol]: the Ki was < 1 µM.

`Cc1nc(C(C)(O)C#Cc2ccc3c(c2)N(c2ccnc(N)n2)CC3)cs1` (stereo not shown) [Example 288, 4-(1-(2-Amino-4-pyrimidinyl)-2,3-dihydro-1H-indol-6-yl)-2-(2-methyl-1,3-thiazol-4-yl)-3-butyn-2-ol]: the Ki is < 1 µM.

As to `Cc1cc([C@@](C)(O)C#Cc2ccc3c(c2)N(c2ncns2)CC3(C)C)no1` [Example 15, (S)-4-(3,3-dimethyl-1-(1,2,4-thiadiazol-5-yl)indolin-6-yl)-2-(5-methylisoxazol-3-yl)but-3-yn-2-ol], the Ki is < 1 µM.

Turning to `CC(O)(C#Cc1ccc2c(c1)N(c1nc(N)ncc1Cl)CC21CCOC1)c1nccs1` (racemic) [Example 198, 4-(1′-(2-Amino-5-chloro-4-pyrimidinyl)-1′,2′,4,5-tetrahydrospiro[furan-3,3′-indol]-6′-yl)-2-(1,3-thiazol-2-yl)-3-butyn-2-ol], the Ki was < 1 µM.

With `COCCOCCn1cc(-c2nc(N)ncc2Cl)c2cc(C#CC3(O)CCCCC3)ccc21` [Example 131, 1-(2-(3-(2-amino-5-chloropyrimidin-4-yl)-1-(2-(2-methoxyethoxy)ethyl)-1H-indol-5-yl)ethynyl)cyclohexanol], the Ki is < 1 µM.

With `C[C@@](O)(C#Cc1ccc(CN2CCOCC2)c(Nc2nc(N)ncc2Cl)c1)c1nccs1` [Example 163, (R)-4-(3-(2-Amino-5-chloropyrimidin-4-ylamino)-4-(morpholinomethyl)phenyl)-2-(thiazol-2-yl)but-3-yn-2-ol], the Ki was < 1 µM.

For the compound `COCCN(C)C1CCn2c1c(-c1ccncn1)c1cc(C#CC(C)(O)c3nccs3)ccc12` (single isomer, unassigned) [Example 87, 4-((R*)-1-((2-methoxyethyl)(methyl)amino)-9-(pyrimidin-4-yl)-2,3-dihydro-1H-pyrrolo[1,2-a]indol-7-yl)-2-(thiazol-2-yl)but-3-yn-2-ol], the Ki was < 1 µM.

Regarding `Cn1cnc(C(O)C#Cc2ccc3c(c2)N(c2nc(N)ncc2Cl)CC3(C)C)c1` (stereo not shown) [Example 46, 3-(1-(2-amino-5-chloro-4-pyrimidinyl)-3,3-dimethyl-2,3-dihydro-1H-indol-6-yl)-1-(1-methyl-1H-imidazol-4-yl)-2-propyn-1-ol], the inhibitory constant (Ki) was < 1 µM.

In the case of `CC(=O)Nc1cc(C#CC2(O)CCCC2)cc2c1CCN2c1nc(N)ncc1Cl` [Example 19, N-(1-(2-amino-5-chloropyrimidin-4-yl)-6-(2-(1-hydroxycyclopentyl)ethynyl)indolin-4-yl)acetamide], the Ki is < 1 µM.

For `Cc1cc(C(C)(O)C#Cc2ccc3c(c2)N(c2nc(N)ncc2Cl)CC32CCOC2)no1` (single isomer, unassigned) [Example 204, 4-((3S*)-1′-(2-Amino-5-chloro-4-pyrimidinyl)-1′,2′,4,5-tetrahydrospiro[furan-3,3′-indol]-6′-yl)-2-(5-methyl-3-isoxazolyl)-3-butyn-2-ol], the Ki is < 1 µM.

`CC(O)(C#Cc1ccc2c(c1)N(c1ccnc(N)n1)CC2)c1nccs1` (stereo not shown) [Example 276, 4-(1-(2-Amino-4-pyrimidinyl)-2,3-dihydro-1H-indol-6-yl)-2-(1,3-thiazol-2-yl)-3-butyn-2-ol]: the Ki was < 1 µM.

Consider `Nc1ncc(Cl)c(N2CC(CO)(CO)c3ccc(C#CC4(O)CCCC4)cc32)n1` [Example 62, 1-((1-(2-amino-5-chloro-4-pyrimidinyl)-3,3-bis(hydroxymethyl)-2,3-dihydro-1H-indol-6-yl)ethynyl)cyclopentanol], for which the Ki is < 1 µM.

Regarding `Cc1cc(C(C)(O)C#Cc2ccc3c(c2)N(c2ccnc(N)n2)CC3)no1` (stereo not shown) [Example 20, 4-(1-(2-aminopyrimidin-4-yl)indolin-6-yl)-2-(5-methylisoxazol-3-yl)but-3-yn-2-ol], the Ki is < 1 µM.

In the case of `Nc1nccc(N2CCc3ccc(C#CC4(O)CCSC4)cc32)n1` (stereo not shown) [Example 264, 3-((1-(2-amino-4-pyrimidinyl)-2,3-dihydro-tH-indol-6-yl)ethynyl)tetrahydro-3-thiopheneol], the Ki is < 1 µM.

With `CC(O)(C#Cc1ccc2c(c1)N(c1nc(N)ncc1Cl)CC21CCCC1)c1ncco1` (stereo not shown) [Example 319, 4-(1′-(2-Amino-5-chloro-4-pyrimidinyl)-1′,2′-dihydrospiro[cyclopentane-1,3′-indol]-6′-yl)-2-(1,3-oxazol-2-yl)-3-butyn-2-ol], the Ki is < 1 µM.

Consider `CC(O)(C#Cc1ccc2c(c1)N(c1nc(N)ncc1Cl)CC21CCCC1)c1nccs1` (stereo not shown) [Example 317, 4-(1′-(2-amino-5-chloro-4-pyrimidinyl)-1′,2′-dihydrospiro[cyclopentane-1,3′-indol]-6′-yl)-2-(1,3-thiazol-2-yl)-3-Butyn-2-ol], for which the Ki is < 1 µM.

Consider `Nc1ncc(Cl)c(-c2cn(C[C@@H]3CCCO3)c3ccc(C#CC4(O)CCCC4)cc23)n1` [Example 136, 1-(2-(3-(2-amino-5-chloropyrimidin-4-yl)-1-(((S)-tetrahydrofuran-2-yl)methyl)-1H-indol-5-yl)ethynyl)cyclopentanol], for which the Ki is < 1 µM.

In the case of `Cc1ccc(C#CC(C)(O)c2nccs2)cc1Nc1ccncc1` (stereo not shown) [Example 172, 4-(4-Methyl-3-(pyridin-4-ylamino)phenyl)-2-(thiazol-2-yl)but-3-yn-2-ol], the inhibition constant (Ki) was in the range of 1 to 30 µM.

As for `Cc1nc(C(C)(O)C#Cc2ccc3c(c2)N(c2nc(N)ncc2Cl)CC3)no1` (stereo not shown) [Example 2, 4-(1-(2-amino-5-chloropyrimidin-4-yl)indolin-6-yl)-2-(5-methyl-1,2,4-oxadiazol-3-yl)but-3-yn-2-ol], the Ki is < 1 µM.

With `C[C@](O)(C#Cc1ccc(CN2CCOCC2)c(Nc2nc(N)ncc2Cl)c1)c1nccs1` [Example 162, (S)-4-(3-(2-Amino-5-chloropyrimidin-4-ylamino)-4-(morpholinomethyl)phenyl)-2-(thiazol-2-yl)but-3-yn-2-ol], the Ki was < 1 µM.

As to `Cc1ccsc1C(C)(O)C#Cc1ccc2c(c1)N(c1ccnc(N)n1)CC2` (stereo not shown) [Example 278, 4-(1-(2-Amino-4-pyrimidinyl)-2,3-dihydro-1H-indol-6-yl)-2-(3-methyl-2-thienyl)-3-butyn-2-ol], the Ki was < 1 µM.

For `Nc1ncc(Cl)c(-c2cn(C3CCNC3)c3ccc(C#CC4(O)CCCC4)cc23)n1` (stereo not shown) [Example 114, 1-(2-(3-(2-amino-5-chloropyrimidin-4-yl)-1-(pyrrolidin-3-yl)-1H-indol-5-yl)ethynyl)cyclopentanol], the Ki was < 1 µM.

In the case of `Cc1cc(C(C)(O)C#Cc2ccc(OC3CCOCC3)c(Nc3nc(N)ncc3Cl)c2)no1` (stereo not shown) [Example 148, 4-(3-(2-Amino-5-chloropyrimidin-4-ylamino)-4-(tetrahydro-2H-pyran-4-yloxy)phenyl)-2-(5-methylisoxazol-3-yl)but-3-yn-2-ol], the Ki is < 1 µM.

As for `CC(O)(C#Cc1ccc2c(c1)N(c1nc(N)ncc1Cl)CC2)c1ccn[nH]1` (stereo not shown) [Example 78, 4-(1-(2-Amino-5-chloro-4-pyrimidinyl)-2,3-dihydro-1H-indol-6-yl)-2-(1H-pyrazol-5-yl)-3-butyn-2-ol], the Ki is < 1 µM.

For `CC(O)(C#Cc1ccc2c(c1)N(c1ccnc(N)n1)CC2)c1ccncc1` (stereo not shown) [Example 272, 4-(1-(2-Amino-4-pyrimidinyl)-2,3-dihydro-1H-indol-6-yl)-2-(4-pyridinyl)-3-butyn-2-ol], the Ki lay in the range of 1 to 30 µM.

In the case of `CC(O)(C#Cc1ccc2c(c1)N(c1nc(N)ncc1Cl)CC2)c1cnccn1` (stereo not shown) [Example 4, 4-(1-(2-amino-5-chloropyrimidin-4-yl)indolin-6-yl)-2-(pyrazin-2-yl)but-3-yn-2-ol], the Ki is < 1 µM.

With `C[C@@](O)(C#Cc1ccc2c(c1)N(c1ccncn1)CC21CCOCC1)c1nccs1` [Example 33, (2R)-4-(1-pyrimidin-4-yl-1,2,2′,3′,5′,6′-hexahydrospiro[indole-3,4′-pyran]-6-yl)-2-(1,3-thiazol-2-yl)but-3-yn-2-ol], the Ki was < 1 µM.

For the compound `C[C@@](O)(C#Cc1ccc2c(c1)N(c1nc(N)ncc1Cl)CC2(CO)CO)c1nccs1` (single isomer, unassigned) [Example 61], the Ki was < 1 µM.
